The conditions of series [1]: relative to cholecalciferol itself; cited from earlier work.
Series [2] is described as follows: Determination of solubility velocity by ICP-MS in 0.1 M hydrochloride solution. The following applies: 0.1 M HCl, 37° C., 84Sr signal by ICP-MS.
Description: Determination of Solubility Velocity by Inductively Coupled Plasma-Mass Spectrometry (ICP-MS)
The solubility is measures as strontium signals over time using ICP-MS. Using this technique it is possible to follow multiple isotopes of the element, here, ^84Sr, ^86Sr, ^87Sr and ^88Sr.
A hydrochloride solution (0.1 M) was added to the sample and the sample then immediately enters, by means of a peristaltic pump, the atomizer of the ICP-MS apparatus. The pump speed was 4.4 ml/min.
The hydrochloride concentration of 0.1 M equals the concentration of HCl in the stomach. The temperature of the HCl solution was 37° C.
The solubility velocity of the compound is obtained by analysing the slopes of the front curves. The first curve represents the experiment and the second curve the apparatus, thus the difference between the slopes of the two curves are used to calculate the solubility velocity by division with the top value.

On to `C=C1/C(=C\C=C2/CCC[C@]3(C)[C@@H]([C@H](C)CCCC(C)(C)O)CC[C@@H]23)C[C@@H](O)C[C@@H]1O` [1,25 dihydroxycholecalciferol], for which, in series [1], the “times more effective in terms of bioavailability than cholecalciferol” value was “ten”.

On to `C=C1CC[C@H](O)C/C1=C/C=C1\CCC[C@]2(C)[C@@H]([C@H](C)CCCC(C)(C)O)CC[C@@H]12` [25-hydroxycholecalciferol], for which the “times more effective in terms of bioavailability than cholecalciferol” value in series [1] is “five”.

In the case of `[Cl-].[Cl-].[Sr+2]` [strontium chloride], the “solubility velocity in hydrochloride” value in series [2] is “very high”.

The record behind these values is US8658206B2, “Compositions comprising strontium and vitamin D and uses thereof” (Mokwalo SA, priority 2004, dated 2014).
